Data: US20090181980A1, “Synergistic Pharmaceutical Composition” (priority 2006, published 2009)

Test system: M. tuberculosis
Assay: MIC alone and in combination (synergy test)
Assay type: cell-based, Mycobacterium tuberculosis
Settings: for change of MIC when tested together: combination of Ethambutol and Isoniazid (negative control, FIG. 2)
Procedure: A sulfonylurea ALS inhibitor and a triazolopyrimidine ALS inhibitor were tested alone and in combination with Rifampicin. The positive controls used were Isoniazid and Streptomycin where one finds a synergistic action. The individual MICs of Isoniazid (INH) and Streptomycin (Strep) are 0.03 and 1.0 μg/ml respectively. When used in combination, these values drop to 0.0075 and 0.12 μg/ml respectively (cf. FIG. 1). This is 4 fold and 8 fold less.
The negative control used was a combination of Ethambutol (Etham) and Isoniazid (Inh) where there is no synergistic activity. […] In. Clinical Microbiology Procedures Handbook; Vol. 1-2 by Isenberg, Henry. D. Ed Washington D.C.; American Society for Microbiology/1992; Pages 5.18.1 to 5.18.28).
When used in combination, these MICs drop 0.0038 and 0.03 ug/ml respectively, which is 8-fold less for both the drugs.
When used in combination, these MICs drop to 0.0038 & 0.03 ug/ml which is 4 & 8-fold less for both the drugs.

[1] = combination of Isoniazid and Streptomycin versus individual MIC

Compound | change of MIC when tested together | fold less MIC in combination [1] | fold less MIC in combination (combination of Rifampicin and SU versus individual MIC) | fold less MIC in combination (combination of Rifampicin and TP versus individual MIC)
CC[C@@H](CO)NCCN[C@@H](CC)CO [Ethambutol] | do not drop significantly | – | – | –
NNC(=O)c1ccncc1 [Isoniazid] | do not drop significantly | 4 fold | – | –
CO[C@H]1/C=C/O[C@@]2(C)Oc3c(C)c(O)c4c(O)c(c(/C=N/N5CCN(C)CC5)c(O)c4c3C2=O)NC(=O)/C(C)=C\C=C\[C@H](C)[C@H](O)[C@@H](C)[C@@H](O)[C@@H](C)[C@H](OC(C)=O)[C@@H]1C [Rifampicin] | – | – | 8 fold | 4 fold
[H]/N=C(/N)N[C@H]1[C@H](O)[C@@H](O)[C@H](O[C@@H]2O[C@@H](C)[C@](O)(C=O)[C@H]2O[C@@H]2O[C@@H](CO)[C@H](O)[C@@H](O)[C@@H]2NC)[C@@H](N/C(N)=N\[H])[C@@H]1O [Streptomycin] | – | 8 fold | – | –
